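Five compound concentrations were applied to cells in 96-well plates for 48 hours; endpoints were derived by simple linear interpolation of the resulting dose-response curve. GI50: concentration for 50% inhibition of growth. Definition used: TGI = concentration required for complete inhibition of growth.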
What was measured:
Assay in all cases: NCI-60 cell line screen, 48 h
NCI-H23 lung = test system: NCI-H23 lung
NCI-H522 lung = test system: NCI-H522 lung
T-47D breast = test system: T-47D breast
BT-549 breast = test system: BT-549 breast
A498 renal = test system: A498 renal
SNB-75 CNS = test system: SNB-75 CNS
HL-60(TB) leukemia = test system: HL-60(TB) leukemia
UACC-257 melanoma = test system: UACC-257 melanoma
COLO 205 colon = test system: COLO 205 colon
RPMI-8226 leukemia = test system: RPMI-8226 leukemia
PC-3 prostate = test system: PC-3 prostate
OVCAR-8 ovarian = test system: OVCAR-8 ovarian
HS 578T breast = test system: HS 578T breast
RXF 393 renal = test system: RXF 393 renal
UACC-62 melanoma = test system: UACC-62 melanoma
M14 melanoma = test system: M14 melanoma
OVCAR-4 ovarian = test system: OVCAR-4 ovarian
HCT-15 colon = test system: HCT-15 colon
HOP-62 NSCLC = test system: HOP-62 NSCLC
OVCAR-5 ovarian = test system: OVCAR-5 ovarian
MALME-3M melanoma = test system: MALME-3M melanoma
HOP-92 NSCLC = test system: HOP-92 NSCLC
DU-145 prostate = test system: DU-145 prostate
MOLT-4 leukemia = test system: MOLT-4 leukemia
CCRF-CEM leukemia = test system: CCRF-CEM leukemia
TK-10 renal = test system: TK-10 renal
SF-539 CNS = test system: SF-539 CNS
MDA-MB-435 = test system: MDA-MB-435

CN1C[C@@H](c2ccc(Cl)cc2)[C@]2(NC(=S)N(c3ccc(F)c(Cl)c3)C2=O)[C@@]12C(=O)NC1C=CC(Cl)=C[C@H]12 (stereo partly specified)
GI50 (NCI-H23 lung): 2.66 µM | TGI (NCI-H23 lung): 10.1 µM | GI50 (NCI-H522 lung): 2.84 µM | TGI (NCI-H522 lung): 10.9 µM | GI50 (T-47D breast): 2.85 µM | TGI (T-47D breast): 13.6 µM | GI50 (BT-549 breast): 4.62 µM | TGI (BT-549 breast): 17.1 µM | GI50 (A498 renal): 2.74 µM | TGI (A498 renal): 10.1 µM | GI50 (SNB-75 CNS): 1.87 µM | TGI (SNB-75 CNS): 9.92 µM | GI50 (HL-60(TB) leukemia): 2.48 µM | TGI (HL-60(TB) leukemia): 6.02 µM | GI50 (UACC-257 melanoma): 3.48 µM | TGI (UACC-257 melanoma): 14.1 µM | GI50 (COLO 205 colon): 1.75 µM | TGI (COLO 205 colon): 3.46 µM | GI50 (RPMI-8226 leukemia): 2.72 µM | TGI (RPMI-8226 leukemia): 7.06 µM | GI50 (PC-3 prostate): 2.25 µM | TGI (PC-3 prostate): 6.42 µM | GI50 (OVCAR-8 ovarian): 2.78 µM | TGI (OVCAR-8 ovarian): 8.6 µM | GI50 (HS 578T breast): 2.96 µM | TGI (HS 578T breast): 16.7 µM | GI50 (RXF 393 renal): 1.88 µM | TGI (RXF 393 renal): 3.73 µM | GI50 (UACC-62 melanoma): 3.11 µM | TGI (UACC-62 melanoma): 12.3 µM | GI50 (M14 melanoma): 2.95 µM | TGI (M14 melanoma): 10.6 µM | GI50 (OVCAR-4 ovarian): 3.75 µM | TGI (OVCAR-4 ovarian): 18.6 µM | GI50 (HCT-15 colon): 3 µM | TGI (HCT-15 colon): 10.3 µM | GI50 (HOP-62 NSCLC): 3.14 µM | TGI (HOP-62 NSCLC): 12.7 µM | GI50 (OVCAR-5 ovarian): 2.36 µM | TGI (OVCAR-5 ovarian): 6.14 µM | GI50 (MALME-3M melanoma): 2.81 µM | TGI (MALME-3M melanoma): 9.09 µM | GI50 (HOP-92 NSCLC): 2.49 µM | TGI (HOP-92 NSCLC): 7.13 µM | GI50 (DU-145 prostate): 3.35 µM | TGI (DU-145 prostate): 12.6 µM | GI50 (MOLT-4 leukemia): 2.87 µM | TGI (MOLT-4 leukemia): 14.6 µM | GI50 (CCRF-CEM leukemia): 4.13 µM | TGI (CCRF-CEM leukemia): 18.6 µM | GI50 (TK-10 renal): 3.48 µM | TGI (TK-10 renal): 8.06 µM | GI50 (SF-539 CNS): 3.29 µM | TGI (SF-539 CNS): 12.2 µM | GI50 (MDA-MB-435): 3.02 µM | TGI (MDA-MB-435): 11.2 µM

Reference: PubChem BioAssay (NCI)
